Results reported in ChEMBL document CHEMBL3991941, “GLEPP-1 inhibitors in the treatment of autoimmune and/or inflammatory disorders” (2011).
Activity calls are given as the source filed them. The rule behind the calls is not given here.

Tests used:
Mus musculus [1] = assay: Antiinflammatory activity in C3H mouse model of thioglycollate-induced lymphocyte recruitment assessed as decrease in blood lymphocytes at 30 mg/kg, po dosed 15 mins before thioglycollate stimulation by Beckman Coulter counting based cell counting method relative to untreated control; assay type: functional; design: scale not given: the % may be the effect or the level left
Mus musculus [2] = assay: Antiinflammatory activity in C3H mouse model of thioglycollate-induced lymphocyte recruitment assessed as decrease in blood macrophages at 30 mg/kg, po dosed 15 mins before thioglycollate stimulation by Beckman Coulter counting based cell counting method relative to untreated control; assay type: functional; design: scale not given: the % may be the effect or the level left
Mus musculus [3] = assay: Antiinflammatory activity in C3H mouse model of thioglycollate-induced lymphocyte recruitment assessed as decrease in blood neutrophils at 30 mg/kg, po dosed 15 mins before thioglycollate stimulation by Beckman Coulter counting based cell counting method relative to untreated control; assay type: functional; design: scale not given: the % may be the effect or the level left
Mus musculus [4] = assay: Reduction in colon weight in Balb/c mouse model of dextran sodium sulfate-induced ulcerative colitis at 10 mg/kg, po dosed twice daily at days 3,4, 5 and 6 after the induction of the ulcerative colitis and measured 7 days post ulcerative colitis induction; assay type: functional; design: scale not given: the % may be the effect or the level left
Mus musculus [5] = assay: Reduction in colon weight in Balb/c mouse model of dextran sodium sulfate-induced ulcerative colitis at 30 mg/kg, po dosed twice daily at days 3,4, 5 and 6 after the induction of the ulcerative colitis and measured 7 days post ulcerative colitis induction; assay type: functional; design: scale not given: the % may be the effect or the level left
Mus musculus [6] = assay: Reduction in colon weight in Balb/c mouse model of dextran sodium sulfate-induced ulcerative colitis at 100 mg/kg, po dosed twice daily at days 3,4, 5 and 6 after the induction of the ulcerative colitis and measured 7 days post ulcerative colitis induction; assay type: functional; design: scale not given: the % may be the effect or the level left
Mus musculus [7] = assay: Reduction in splenomegaly in Balb/c mouse model of dextran sodium sulfate-induced ulcerative colitis at 100 mg/kg, po dosed twice daily at days 3,4, 5 and 6 after the induction of the ulcerative colitis and measured 7 days post ulcerative colitis induction; assay type: functional; design: scale not given: the % may be the effect or the level left
Mus musculus [8] = assay: Reduction in splenomegaly in Balb/c mouse model of dextran sodium sulfate-induced ulcerative colitis at 30 mg/kg, po dosed twice daily at days 3,4, 5 and 6 after the induction of the ulcerative colitis and measured 7 days post ulcerative colitis induction; assay type: functional; design: scale not given: the % may be the effect or the level left
Mus musculus [9] = assay: Reduction in body weight loss in Balb/c mouse model of dextran sodium sulfate-induced ulcerative colitis at 10 to 100 mg/kg, po dosed twice daily at days 3,4, 5 and 6 after the induction of the ulcerative colitis and measured 7 days post ulcerative colitis induction; assay type: functional, organism-based

## CCCCCCN(Cc1ccc(C#Cc2ccc(CCCC)cc2)cc1)c1ccc(C(=O)O)c(O)c1
Mus musculus [1]
  Activity: 23%
Mus musculus [2]
  Activity: 65%
Mus musculus [3]
  Activity: 45%

## CCCCc1ccc(C#Cc2ccc(CN(CC3CCCC3)c3ccc(F)c(C(=O)O)c3)cc2)cc1
Mus musculus [1]
  Activity: 23%
Mus musculus [2]
  Activity: 37%
Mus musculus [3]
  Activity: 36%

## CCCCCCN(Cc1ccc(C#Cc2ccc(CCCC)cc2)cc1)C(=O)c1ccc(O)c(C(=O)O)c1
Mus musculus [1]
  Activity: 41%
Mus musculus [2]
  Activity: 62%
Mus musculus [3]
  Activity: 41%

## CCCCCCN(Cc1ccc(C#Cc2ccc(CCCC)cc2)cc1)c1ccc(O)c(C(=O)O)c1
Mus musculus [1]
  Activity: 47%
Mus musculus [2]
  Activity: 50%
Mus musculus [4]
  Activity: -22%
Mus musculus [5]
  Activity: -28%
Mus musculus [6]
  Activity: -35%
Mus musculus [3]
  Activity: 44%
Mus musculus [7]
  Activity: -65%
Mus musculus [8]
  Activity: -31%

## CCCCCCN(Cc1ccc(C#Cc2ccc(C(C)(C)C)cc2)cc1)c1ccc(F)c(C(=O)O)c1
Mus musculus [1]
  Activity: 13%
Mus musculus [2]
  Activity: 42%
Mus musculus [3]
  Activity: 36%

## CCCCCCc1ccc(C#Cc2ccc(N(Cc3ccc(C(F)(F)F)cc3)C(=O)C(=O)O)cc2)cc1
Mus musculus [1]
  Activity: 21%
Mus musculus [2]
  Activity: 32%
Mus musculus [3]
  Activity: 15%

## O=C(O)C(=O)N(Cc1ccc(C#CCCCCCCCCCF)cc1)Cc1ccc(C(F)(F)F)cc1
Mus musculus [1]
  Activity: 24%
Mus musculus [2]
  Activity: 36%
Mus musculus [3]
  Activity: 16%

## CCCCCCN(Cc1ccc(C#Cc2ccc(CCC)cc2)cc1)c1ccc(F)c(C(=O)O)c1
Mus musculus [1]
  Activity: 4%
Mus musculus [2]
  Activity: 26%
Mus musculus [3]
  Activity: -6%

## CCCCCCN(Cc1ccc(F)c(C(=O)O)c1)c1ccc(C#Cc2ccc(CCCC)cc2)cc1
Mus musculus [1]
  Activity: 8%
Mus musculus [2]
  Activity: 32%
Mus musculus [3]
  Activity: 28%

## CCCCCCN(Cc1ccccc1C#Cc1ccc(CCCC)cc1)C(=O)c1ccc(O)c(C(=O)O)c1
Mus musculus [9]
  Activity: Active
Mus musculus [4]
  Activity: -47%
Mus musculus [5]
  Activity: -50%
Mus musculus [7]
  Activity: -45%
Mus musculus [8]
  Activity: -25%

## CCCCCCc1ccc(C#Cc2ccc(CN(C(=O)C(=O)O)C(C)(C)c3cccc(Cl)c3)cc2)cc1
Mus musculus [1]
  Activity: 39%
Mus musculus [2]
  Activity: 52%
Mus musculus [3]
  Activity: 25%

## CCCCCCc1ccc(C#Cc2ccc(CN(Cc3ccc(C(F)(F)F)cc3)C(=O)C(=O)O)cc2)cc1
Mus musculus [1]
  Activity: 29%
Mus musculus [2]
  Activity: 27%
Mus musculus [3]
  Activity: 27%
